{
  "source": "patent US9247737B2",
  "about": "“Method for disinfecting a surface” (Rohm and Haas Company, priority 2011, dated 2016)",
  "type_in_all_cases": "cell-based",
  "key": {"[1]": {"system": "Escherichia coli (E. coli ATCC #10536)", "assay": "Example 2: high resolution MBC synergy assay in phosphate buffer containing 35% dipropylene glycol, 15 seconds", "conditions": "for ΣFBC: calculated for the Ca/Cb pair, 1.00 for a component alone; for MBC of component alone (MBCA thymol, MBCB acyclic terpene alcohol): complete kill in 15 seconds, phosphate buffer with 35% DPG, about 1×10^8 bacteria per mL", "protocol": "In this Example, a wide range of combinations of chemicals was tested by conducting high resolution MBC assays of selected acyclic terpene alcohols in the presence of various concentrations of thymol. The materials were sourced in the same way as for Example 1. Synergy tests were conducted using standard microtiter plate assays with phosphate buffer containing 35% dipropylene glycol (DPG). […] The MBC plate was inoculated one column at a time with the test microorganism. An aliquot of the inoculated well was transferred at 15 seconds to a plate containing a neutralizing agent (DIE Neutralizing Broth), mixed and held for 5 minutes before being transferred to a growth plate containing trypticase soy broth (TSB). The TSB plate was incubated at 37° C. and read for the presence/absence of growth at 24 hours. […] This microorganism is representative of natural contaminants in many consumer and industrial applications. […] The tables show the specific combinations of two components: results against the microorganism tested: the end-point activity in weight % measured by the MBC for the first component alone (thymol, MBCA), for the second component alone (acyclic terpene alcohol, MBCB), for the first component in the mixture (Ca) and for the second component in the mixture (Cb); the calculated ΣFBC value; and the range of synergistic ratios for each combination tested (first component t second component or A/B) against the particular microorganism."}, "[2]": {"system": "Escherichia coli (10536 strain)", "assay": "Example 1: 15 second contact-time bacterial kill assay (microtitre plate, D/E quench, TSA plate count); MBC and FBC analysis", "conditions": "lowest concentration of the single active giving zero bacterial survival after 15 seconds; upper boundary", "protocol": "The efficacies of antimicrobial agents can be usefully compared by determining the Minimum Biocidal Concentration (MBC). The MBC is defined as the lowest absolute concentration of the particular active that provides complete kill (zero bacterial growth).\n1 ml of this overnight E. coli culture was transferred to 50 ml of fresh TSB broth and incubated at 37° C. at 150 rpm for ca. 4 hours. This culture was separated into equal volumes and centrifuged at 4000 rpm for 15 minutes, washed with sterile saline (0.85% NaCl), centrifuged once more and re-suspended in saline to give a final concentration of 0.8 OD620 equivalent to about 10^8 cells per millilitre for this particular organism. Here, OD620 indicates the absorbance of a sample in a cuvette of 1.0 cm path length at a wavelength of 620 nm. This bacterial stock was used for assaying against antimicrobial actives (in triplicate).\nThe following assay describes the testing of 8 materials using 6 dilutions across half of a 96-well micro titre plate (MTP). Using this approach it is possible to assay 16 actives (without replicates) with one full dilution plate, replicating this set up in two halves of the plate columns, 1-6 and 7-12.\nThis MTP was labelled as the “Screening plate”.\nIn another MTP, labelled as the “Dilution plate”, 270 μl of D/E neutralising solution from DIFCO Composition was added to column 1. The composition of the neutralising solution was as follows: pancreatic digest of casein, 5.0 g/L; Yeast Extract, 2.5 g/L; Dextrose, 10 g/L, sodium thioglycollate, 1.0 g/L, sodium thiosulphate, 6.0 g/L; sodium bisulphite, 2.5 g/L; Polysorbate 80, 5.0 g/L; lecithin 7.0 g/L; bromocresol purple, 0.02 g/L with a pH in the range 7.6±0.2.\n270 μl of tryptone diluent solution was added to all the remaining wells of the Dilution MTP (columns 2-6).\nAfter exactly 5 minutes in the D/E neutralising solution, 30 μl volumes were transferred from column 1 to column 2 of the Dilution MTP and mixed, before transferring further 30 μl volumes from column 2 into column 3. […]"}, "[3]": {"system": "Escherichia coli (E. coli—ATCC #10536)", "assay": "Example 3: automated assessment of efficacy in surfactant base (2.85% sodium cocoyl glycinate + 1.85% sodium lauroamphoacetate, pH 10), 15 seconds exposure, DeltaOD read-out", "conditions": "for MBC: in 2.85% sodium cocoyl glycinate + 1.85% sodium lauroamphoacetate solution at pH 10, 15 seconds; for 15 second bactericidal efficacy in combination with thymol (in words): in combination with thymol at concentrations lower than their MBC in the same surfactant formulation", "protocol": "In these examples, the efficacy of combinations of thymol and acyclic terpene alcohols were tested in a surfactant cleansing formulation comprising 2.85% sodium cocoyl glycinate and 1.85% sodium lauroamphoacetate. […] Solutions were prepared such that the concentrations of the surfactant components and test actives were 1.1 times the final desired concentration in order to allow for dilution with the bacterial inoculum in the test. […] Solutions of the thymol and/or acyclic terpene alcohols were prepared at a maximum of 24 hours before testing. […] Tests were conducted using standard microtiter plate assays using an automated liquid handling system. 270 μl of the surfactant test solution was pipetted into each well of the microtitre plate (Nunc F Gamma irradiated 96F untreated microtitre plates of clear polystyrene) and 30 μl of the bacterial suspension was then added. After exactly 15 seconds of bacterial exposure, a 30 μl volume of bacterial cells was withdrawn and transferred to 270 μl of D/E quench solution. […] These provide a dual check of antimicrobial activity, as the OD450 reading is specific for the yellow colour of DIE quench when bacterial growth is observed, whereas OD590 is specific for the initial purple colour of the D/E quench which is retained if no bacterial growth is observed. […] Bacterial growth is observed as an increase in OD450 and a decrease in OD590. […] Four replicate measurements in the same plate have been made for each test system. The number of replicate wells showing either bacterial growth or no growth is also readily assessed by eye by following the colour change. Thymol and terpineol were tested both alone and in combination for comparison purposes."}},
  "note": "Where “and” joins values, the source holds several entries; their conditions need not be identical. Equal entries are not always repeated.",
  "data": [
    {"smiles": "C=CC(C)(O)CCC=C(C)C", "note": "(racemic) [(+/−)-linalool, 3,7-dimethylocta-1,6-dien-3-ol]", "values": [
      {"measurement": "ΣFBC", "setting": "[1]", "value": 1.00},
      {"measurement": "MBC of component alone (MBCA thymol, MBCB acyclic terpene alcohol)", "setting": "[1]", "value": 0.5, "unit": "weight %"},
      {"measurement": "MBC (minimum biocidal concentration)", "setting": "[2]", "value": 0.4, "unit": "% w/v"},
      {"measurement": "MBC", "setting": "[3]", "value": ">0.5", "unit": "% w/v"},
      {"measurement": "15 second bactericidal efficacy in combination with thymol (in words)", "setting": "[3]", "value": "complete kill"}
    ]},
    {"smiles": "CC(C)=CCC/C(C)=C/CO", "note": "[geraniol, (E)-3,7-dimethylocta-2,6-dien-1-ol]", "values": [
      {"measurement": "ΣFBC", "setting": "[1]", "value": 1.00},
      {"measurement": "MBC of component alone (MBCA thymol, MBCB acyclic terpene alcohol)", "setting": "[1]", "value": 0.3, "unit": "weight %"},
      {"measurement": "MBC", "setting": "[3]", "value": ">0.5 % w/v and 0.5 % w/v"},
      {"measurement": "15 second bactericidal efficacy in combination with thymol (in words)", "setting": "[3]", "value": "complete kill"}
    ]},
    {"smiles": "CC1=CCC(C(C)(C)O)CC1", "note": "(stereo not drawn) [alpha-terpineol, reference compound]", "values": [
      {"measurement": "MBC (minimum biocidal concentration)", "setting": "[2]", "value": 0.4, "unit": "% w/v"}
    ]},
    {"smiles": "Cc1ccc(C(C)C)c(O)c1", "note": "[thymol, 2-isopropyl-5-methylphenol]", "values": [
      {"measurement": "ΣFBC", "setting": "[1]", "value": 1.00},
      {"measurement": "MBC of component alone (MBCA thymol, MBCB acyclic terpene alcohol)", "setting": "[1]", "value": "0.5 weight % and 0.4 weight %"},
      {"measurement": "MBC", "setting": "[3]", "value": 0.2, "unit": "% w/v"}
    ]},
    {"smiles": "CC(C)=CCC/C(C)=C\\CO", "note": "[nerol, (Z)-3,7-dimethylocta-2,6-dien-1-ol]", "values": [
      {"measurement": "ΣFBC", "setting": "[1]", "value": 1.00},
      {"measurement": "MBC of component alone (MBCA thymol, MBCB acyclic terpene alcohol)", "setting": "[1]", "value": 0.5, "unit": "weight %"}
    ]},
    {"smiles": "C=C[C@@](C)(O)CCC=C(C)C", "note": "[(−)-linalool, (S)-3,7-dimethylocta-1,6-dien-3-ol]", "values": [
      {"measurement": "MBC (minimum biocidal concentration)", "setting": "[2]", "value": 0.4, "unit": "% w/v"}
    ]}
  ]
}
